Among the data in patent US9340577B2, “HLA binding motifs and peptides and their uses” (priority 1992, dated 2016) are IC50 values, retold here.

Assay in all cases: biochemical
One assay addresses DRB1*1101 (Homo sapiens, UniProt P01903+P01911, A100R/A169T/A87E/I96F/K41T/L162R/M171V/P40S/Q125H/Q178H/Q39Y/Q99D/R42S/S66Y/T262R/V115G/W38E).
Another assay concerns the target DRB5*0101 (Homo sapiens, UniProt P01903+Q30154).
In another assay the target is DR7 (DRB1*0701) (Homo sapiens, UniProt P01903+P01911, A100R/A102G/A103Q/D57E/D86V/E43K/F76Y/K127E/L162R/M171V/P40G/Q125H/Q99D/R33Q/R42Y/R54Q/S133A/S66F/T210M/V115G/Y107V/Y59L/Y89S). The assay is classed as binding.
For a further assay, the target named is DRB1*0405 (Homo sapiens, UniProt P01903+P01911, A100R/A169T/D86S/F76Y/I96L/K127E/L162R/M171V/N62H/P40V/Q125Y/R42H/S133A/S149N/S66Y/V115G/V209L/W38E). Type of assay: binding.
The target of another assay is DRB1*0802 (Homo sapiens, UniProt P01903+P01911, A100R/A103L/A169T/F76Y/H45Y/I96F/K41T/L162R/M171V/P40S/Q125H/Q178H/Q39Y/Q99D/R218S/R42G/S66Y/V115G/W38E). The assay is classed as binding.
For another assay, the target named is DRB1*0901 (Homo sapiens, UniProt P01903+P01911, A100R/A103E/D57H/D86V/F55Y/F60I/F76Y/I96F/K127E/L162R/M171V/P40D/Q125H/Q99R/R33Q/R42F/S133A/S66N/T210M/V115G/W38K/Y107V/Y59G/Y89S). The assay is classed as binding.
Another assay addresses DRB1*1501 (Homo sapiens, UniProt P01903+P01911). Type of assay: binding.
The target of another assay is DR4w4 (DRB1*0401) (Homo sapiens, UniProt P01903+P01911, A100K/A169T/F76Y/I96L/K127E/L162R/M171V/N62H/P40V/Q125Y/R42H/S133A/S149N/S66Y/V115G/V209L/W38E). Type of assay: binding.
The target in a further assay is DR1 (DRB1*0101) (Homo sapiens, UniProt P01903+P01911, A100R/D57E/F55L/F60I/F76Y/I96L/L162R/M171V/P40L/Q125E/R42F/V115G/Y59C). Type of assay: binding.
The target in another assay is DRB1*1302 (Homo sapiens, UniProt P01903+P01911, A100E/A169T/K41T/L162R/M171V/P40S/Q125H/Q178H/Q39Y/Q99D/R42S/S66N/T262R/V115G/W38E/Y61H). Type of assay: binding.
DRB1*1302, sequence (P01903 26-254 limits assumed, other chains not shown): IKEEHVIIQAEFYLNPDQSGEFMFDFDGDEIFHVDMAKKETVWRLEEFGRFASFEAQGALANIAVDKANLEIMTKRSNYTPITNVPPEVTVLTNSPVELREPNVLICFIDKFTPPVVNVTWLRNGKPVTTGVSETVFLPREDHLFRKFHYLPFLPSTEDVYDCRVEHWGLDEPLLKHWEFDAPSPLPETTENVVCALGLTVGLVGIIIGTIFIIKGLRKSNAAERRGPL
Another assay addresses DRB4*0101 (Homo sapiens, UniProt P01903+P13762, G164S). Type of assay: binding.

pIC50: −log10 of the molar value. Where two headings read alike, the source gives them in different places. No end group written: not given here.

DRB1*1101, sequence (P01903 26-254 limits assumed, other chains not shown): as above

As to NTEVETQQMVQQVES [Peptide 89.0059], the pIC50 at DRB1*1101 (Binding affinity DRB1 *1101), on DRB5*0101 (Binding affinity DRB5 *0101), against DR7 (DRB1*0701), at DRB1*0405, against DRB1*0802 and against DRB1*0901 was under 4.70 throughout. Also, the pIC50 against DRB1*1501, at DR4w4 (DRB1*0401) and against DR1 (DRB1*0101) was under 4.70 in each case.

Consider NCILLYGPANTGKSY [Peptide 89.0087], for which the pIC50 at DRB1*1101 (Binding affinity DRB1 *1101) is 5.09; at DRB5*0101 (Binding affinity DRB5 *0101), 5.19; at DR7 (DRB1*0701) it was under 4.70; at DRB1*0405 it was 5.13; against DRB1*0802, 4.87; on DRB1*0901, under 4.70. The pIC50 is 7.18 against DRB1*1501, 6.55 at DR4w4 (DRB1*0401) and 6.96 on DR1 (DRB1*0101).

PMCMMIEPPKLRSTA [Peptide 90.0034]: the pIC50 is 5.69 on DRB1*1101 (Binding affinity DRB1 *1101); 6.57 at DRB5*0101 (Binding affinity DRB5 *0101); 6.43 at DR7 (DRB1*0701); 5.68 against DRB1*0405; 5.36 against DRB1*0802; 5.80 against DRB1*1302. The pIC50 on DRB1*0901 is 4.95; on DRB1*1501, 5.48; on DR4w4 (DRB1*0401), 6.44; against DR1 (DRB1*0101), 7.43.

Regarding NTEVETQQMVQVEEQ [Peptide 89.0039], the negative-log IC50 (pIC50) on DRB1*1101 (Binding affinity DRB1 *1101), at DRB5*0101 (Binding affinity DRB5 *0101), against DR7 (DRB1*0701), against DRB1*0405, against DRB1*1302 and on DRB1*0901 was under 4.70 in each case. For the same compound, the pIC50 at DRB1*1501 was under 4.70; on DR4w4 (DRB1*0401) it was under 4.70; on DR1 (DRB1*0101), 5.58.

With LMQLKCPPLLITSNI [Peptide 89.0057], the pIC50 was under 4.70 on DRB5*0101 (Binding affinity DRB5 *0101); 5.83 against DRB1*0405; 5.55 at DRB1*0802; 7.17 against DRB4*0101; 6.91 against DRB1*1302; 5.29 against DRB1*0901. Moreover, the pIC50 is 6.80 against DRB1*1501 and 6.67 against DR1 (DRB1*0101).

With DCKWGVLILALLRYK [Peptide 89.0026], the negative logarithm of the IC50 (pIC50) on DRB1*1101 (Binding affinity DRB1 *1101) is 6.41; on DRB5*0101 (Binding affinity DRB5 *0101) it was 5.95; on DR7 (DRB1*0701) it was 5.13; against DRB1*0405, 5.87; on DRB1*0802, 5.74; against DRB1*1302, 6.10. Moreover, the pIC50 against DRB1*0901 is 6.00; at DRB1*1501 it was 6.39; against DR4w4 (DRB1*0401) it was 5.96.

Take NTEVETQQMLQVEGR [Peptide 89.0002]: the pIC50 on DRB1*1101 (Binding affinity DRB1 *1101) is under 4.70; on DRB5*0101 (Binding affinity DRB5 *0101) it was under 4.70; at DR7 (DRB1*0701), 5.73; on DRB1*0405, under 4.70; at DRB1*0802, under 4.70; on DRB1*1302, 5.63. The pIC50 was under 4.70 against DRB1*0901, 4.81 on DRB1*1501 and 5.30 at DR1 (DRB1*0101).

Consider TNCMLIQPPKLRSTA [89,0046], for which the pIC50 against DRB1*0405 was 5.49; at DR4w4 (DRB1*0401), 5.73; on DR1 (DRB1*0101) it was 7.77.

In the case of MVQVEEQQTTLSCNG [Peptide 89.0040], the pIC50 on DRB1*1101 (Binding affinity DRB1 *1101), on DRB5*0101 (Binding affinity DRB5 *0101), against DR7 (DRB1*0701), at DRB1*0405, at DRB1*0802 and on DRB1*1302 was under 4.70 throughout. Also, the pIC50 against DRB1*0901 was under 4.70; against DRB1*1501 it was under 4.70; against DR4w4 (DRB1*0401), 6.47.

Regarding PMAVSKAKACQAIEL [Peptide 90.0013], the pIC50 at DRB1*1101 (Binding affinity DRB1 *1101) was 5.81; on DRB5*0101 (Binding affinity DRB5 *0101) it was 4.89; on DRB1*0405, under 4.70; against DRB4*0101, 5.80; on DRB1*1302 it was 6.27; against DRB1*1501 it was 4.78. Also, the pIC50 at DR1 (DRB1*0101) was 7.05.

In the case of FAGIVTKLPTANNTT [Peptide 89.0175], the pIC50 is 5.12 at DRB1*1101 (Binding affinity DRB1 *1101); 5.89 at DR7 (DRB1*0701); 5.23 against DRB1*0405; 5.81 against DRB1*0802; 5.92 against DRB4*0101; under 4.70 against DRB1*0901. Besides, on DRB1*1501, the negative logarithm of the IC50 (pIC50) is 5.59.

For the compound NGWFYVEAVVEKKTG [Peptide 90.0029], the pIC50 was 5.56 at DRB1*1101 (Binding affinity DRB1 *1101); 6.51 on DR7 (DRB1*0701); 7.57 against DRB1*0405; 5.19 against DRB1*0802; 5.26 against DRB1*1302; 6.02 on DRB1*0901. Further, the pIC50 is under 4.70 at DRB1*1501, 7.51 against DR4w4 (DRB1*0401) and 6.66 against DR1 (DRB1*0101).

As to IKFFQGSVISFVNSQ [Peptide 89.0136], the pIC50 on DRB1*1101 is under 4.70; against DRB5*0101 it was 5.26; against DR7 (DRB1*0701), under 4.70; on DRB1*0405 it was under 4.70; against DRB1*0802, under 4.70; against DRB1*1302, 7.96. The pIC50 against DRB1*0901, at DRB1*1501 and at DR1 (DRB1*0101) was under 4.70 throughout.

As to PPLLITTNINPMLDA [Peptide 89.0139], the pIC50 was 5.13 against DRB1*1101; 5.12 on DR7 (DRB1*0701); 5.47 on DRB1*0405; 5.12 against DRB1*0802; under 4.70 on DRB1*1302; under 4.70 against DRB1*0901. For the same compound, the pIC50 against DRB1*1501 is 5.32; against DR4w4 (DRB1*0401), 6.21; at DR1 (DRB1*0101), 5.91.

In the case of FIHFIQGAVISFVNS [Peptide 89.0036], the pIC50 at DRB1*1101 (Binding affinity DRB1 *1101) is 5.36; on DRB5*0101 (Binding affinity DRB5 *0101), 5.22; at DRB1*0405 it was 5.91; on DRB1*0802, 5.47; at DRB4*0101, 6.89; against DRB1*1302, 7.01. For the same compound, the pIC50 is 6.86 at DRB1*0901 and 6.17 against DRB1*1501.

For the compound YLVCGERGFFYTKPT [Peptide 9000.0079], the pIC50 on DRB1*0405 was under 4.52; against DRB1*0802, under 4.26; on DR4w4 (DRB1*0401) it was under 4.69.

Consider `CC(C)C[C@H](NC(=O)[C@H](CC(C)C)NC(=O)[C@@H]1CCCN1C(=O)[C@@H](N)CC(N)=O)C(=O)NCC(=O)N[C@@H](C)C(=O)N[C@@H](C)C(=O)N[C@H](C(=O)N1CCC[C@H]1C(=O)N[C@H](C(=O)NCC(=O)N[C@@H](CC(N)=O)C(=O)N[C@@H](CC(N)=O)C(=O)N[C@@H](CCCCN)C(=O)N[C@@H](CCCNC(=N)N)C(=O)O)[C@@H](C)O)[C@@H](C)O` [Peptide 89.0165], for which the pIC50 on DRB1*1101 (Binding affinity DRB1 *1101) is under 4.70; on DRB5*0101 (Binding affinity DRB5 *0101), under 4.70; at DR7 (DRB1*0701), under 4.70; at DRB1*0405, 5.08; against DRB1*0802, under 4.70; against DRB1*1302, under 4.70. Further, the pIC50 is 5.03 against DRB1*0901, 5.91 on DR4w4 (DRB1*0401) and 6.18 against DR1 (DRB1*0101).

For `CSCC[C@H](NC(=O)[C@H](Cc1ccc(O)cc1)NC(=O)[C@H](Cc1ccc(O)cc1)NC(=O)[C@@H](NC(=O)[C@H](CO)NC(=O)[C@H](CC(=O)O)NC(=O)[C@H](Cc1c[nH]c2ccccc12)NC(=O)[C@H](C)NC(=O)[C@@H](N)C(C)C)C(C)C)C(=O)N[C@H](C(=O)N[C@@H](CC(=O)O)C(=O)N[C@@H](C)C(=O)NCC(=O)N[C@H](C(=O)N[C@@H](Cc1c[nH]c2ccccc12)C(=O)O)[C@@H](C)O)[C@@H](C)O` [Peptide 1601.10], the pIC50 was under 4.70 on DRB1*1101 (Binding affinity DRB1 *1101); under 4.70 at DRB5*0101 (Binding affinity DRB5 *0101); 5.13 on DRB1*0405; under 4.70 against DRB1*0802; under 4.70 at DRB1*1302; 6.23 against DRB1*0901. Further, the pIC50 at DRB1*1501 is under 4.70; on DR4w4 (DRB1*0401), 5.78; against DR1 (DRB1*0101), 5.10.

As for WCIIGMGVTPSVAEG [Peptide 89.0097], the pIC50 at DRB1*1101 (Binding affinity DRB1 *1101) was under 4.70; on DRB5*0101 (Binding affinity DRB5 *0101) it was under 4.70; on DR7 (DRB1*0701) it was 5.45; on DRB1*0405 it was under 4.70; against DRB1*0802, under 4.70; at DRB1*1302 it was 5.68. For the same compound, the pIC50 at DRB1*0901, on DRB1*1501, on DR4w4 (DRB1*0401) and against DR1 (DRB1*0101) was under 4.70 in each case.

For the compound RLTVSKLMSQLLNIP [89,0100], the pIC50 against DRB1*0405 is under 4.70; against DR4w4 (DRB1*0401), under 4.70; on DR1 (DRB1*0101) it was 4.98.
